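In this assay, cells in 96-well plates receive the compound at five concentrations for 48 hours. Endpoints are linearly interpolated between the surrounding concentrations. TGI marks complete inhibition of growth.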
Experiments:
Assay in all cases: NCI anticancer screen, dose series, 48 h
786-0 renal = tested on: 786-0 renal
A498 renal = tested on: A498 renal
A549 NSCLC = tested on: A549 NSCLC
ACHN renal = tested on: ACHN renal
CAKI-1 renal = tested on: CAKI-1 renal
CCRF-CEM leukemia = tested on: CCRF-CEM leukemia
COLO 205 colon = tested on: COLO 205 colon
DLD-1 colon = tested on: DLD-1 colon
DU-145 prostate = tested on: DU-145 prostate
HCC-2998 colon = tested on: HCC-2998 colon
HCT-116 colon = tested on: HCT-116 colon
HCT-15 colon = tested on: HCT-15 colon
HL-60(TB) leukemia = tested on: HL-60(TB) leukemia
HOP-18 NSCLC = tested on: HOP-18 NSCLC
HOP-92 NSCLC = tested on: HOP-92 NSCLC
HT29 colon = tested on: HT29 colon
IGROV1 ovarian = tested on: IGROV1 ovarian
K-562 leukemia = tested on: K-562 leukemia
KM12 colon = tested on: KM12 colon
KM20L2 colon = tested on: KM20L2 colon
LOX IMVI melanoma = tested on: LOX IMVI melanoma
LXFL 529 NSCLC = tested on: LXFL 529 NSCLC
M14 melanoma = tested on: M14 melanoma
M19-MEL melanoma = tested on: M19-MEL melanoma
MALME-3M melanoma = tested on: MALME-3M melanoma
MOLT-4 leukemia = tested on: MOLT-4 leukemia
NCI-H226 lung = tested on: NCI-H226 lung
NCI-H23 lung = tested on: NCI-H23 lung
NCI-H460 lung = tested on: NCI-H460 lung
NCI-H522 lung = tested on: NCI-H522 lung
OVCAR-3 ovarian = tested on: OVCAR-3 ovarian
OVCAR-4 ovarian = tested on: OVCAR-4 ovarian
OVCAR-5 ovarian = tested on: OVCAR-5 ovarian
OVCAR-8 ovarian = tested on: OVCAR-8 ovarian
RPMI-8226 leukemia = tested on: RPMI-8226 leukemia
RXF 393 renal = tested on: RXF 393 renal
RXF-631 renal = tested on: RXF-631 renal
SF-268 CNS = tested on: SF-268 CNS
SF-295 CNS = tested on: SF-295 CNS
SF-539 CNS = tested on: SF-539 CNS
SK-MEL-2 melanoma = tested on: SK-MEL-2 melanoma
SK-MEL-28 melanoma = tested on: SK-MEL-28 melanoma
SK-MEL-5 melanoma = tested on: SK-MEL-5 melanoma
SK-OV-3 ovarian = tested on: SK-OV-3 ovarian
SN12C renal = tested on: SN12C renal
SNB-19 CNS = tested on: SNB-19 CNS
SNB-75 CNS = tested on: SNB-75 CNS
SR leukemia = tested on: SR leukemia
SW-620 colon = tested on: SW-620 colon
TK-10 renal = tested on: TK-10 renal
U251 CNS = tested on: U251 CNS
UACC-257 melanoma = tested on: UACC-257 melanoma
UACC-62 melanoma = tested on: UACC-62 melanoma
UO-31 renal = tested on: UO-31 renal
XF 498 CNS = tested on: XF 498 CNS
DMS 114 small cell lung = tested on: DMS 114 small cell lung
EKVX NSCLC = tested on: EKVX NSCLC
HOP-62 NSCLC = tested on: HOP-62 NSCLC
SNB-78 CNS = tested on: SNB-78 CNS

Measured: TGI

CCOC(=O)C=C1CCC2(CC1)OCCO2
not listed: DMS 114 small cell lung | EKVX NSCLC | HOP-62 NSCLC | SNB-78 CNS
> 100 µM: all other assays above

CON(C)C(=O)CCCO
not listed: A498 renal | DU-145 prostate | HCC-2998 colon | LOX IMVI melanoma | OVCAR-5 ovarian | SK-OV-3 ovarian | SNB-78 CNS
> 100 µM: all other assays above

CC1=C(C(=O)CC(=O)C(=O)Nc2cccc(Cl)c2C)Sc2ccccc2N1
not listed: A498 renal | COLO 205 colon | DU-145 prostate | KM20L2 colon | SNB-75 CNS
> 100 µM: all other assays above
